{
  "source": "patent US20130079299A1",
  "about": "“Arthritis Therapeutic Agent” (GLUCAN CORPORATION, priority 2010, published 2013)",
  "key": {"[1]": {"tested_on": "rheumatoid arthritis (RA) DBA mouse caused by collagen", "experiment": "Collagen-induced rheumatoid arthritis (RA) mouse model, histomorphometry of thymus, spleen and knee joint", "assay_type": "in vivo", "from_the_text": "Bone tissue was amputated from around the thymus and spleen and fixed in 10% neutral formalin, and was then dehydrated and paraffin embedded to provide a 3-4 μm longitudinal section, then dyed with Hematoxylineosin and observed under an optical microscope. In addition, the knee joint of both the rear legs were removed from the around connective tissue and fixed in 10% neutral formalin, and then it was decalcificated using a decalcification solution containing 24.4% of formic acid and 0.5 N of sodium hydroxide for 5 days. […] Then the section was dyed with Hematoxylineosin and observed under the optical microscope. […] DMI, Korea) in the view of a 40×-magnification microscope, and the thickness of articular cartilage of the femur and tibia of the knee joint, the proteoglycan loss, and erosion were evaluated by an automated image analyzer (DMI-300 Image Processing; DMI, Korea) in the view of a 100×-magnification microscope according to the known method [Dudler et al., 2000; van Holten et al., 20 04; Kim et al., 2007]. The proteoglycan loss was evaluated into 3 levels for stainability of Safranin O dye specialized for proteoglycans according to the known method [Williams et al., 1992; Dudler et al., 2000; van Holten et al., 2004]. In other words, 0 indicates no proteoglycan loss, and 3 indicates no stainability because of complete deflection. […] The RA(Rhematoid Arthritis)-induced mouse model using collagen is one of the animal models that are widely used for evaluating the efficacy on RA for various materials [Liu et al., 2008; Miyake et al., 2008; Pa nayi et al., 2008], and RA was caused by the auto-immunity."}, "[2]": {"tested_on": "Sprague-Dawley rats caused to have osteoarthritis", "experiment": "Osteoarthritis caused by anterior cruciate ligament transection and partial medial meniscectomy, 84 days administration", "method": "Sprague-Dawley rats (male, 6 week-old, SLC., JAPAN) [ANNEX I-III] were prepared as laboratory animals.\nSix experimental groups were formed, with 8 Sprague-Dawley Rats in each group. […] In addition, a negative control group was an OA control group which was treated with nothing after causing osteoarthritis, and a positive control group was administered 2 mg/kg of diclofenac sodium after causing osteoarthritis.\nThe medium for the administration was sterilized distilled water at 5 ml/kg.\nFor the positive control, 2 mg/kg of the diclofenac sodium was transdermally administered at 1 ml/kg of normal saline as a medium every day for 84 days.\nEach experimental rat was anesthetized with Zoletile 50 (Vir bac Lab., France), and the left articular capsule was exposed and underwent anterior cruciate ligament transaction and partial medial meniscectomy to cause osteoarthritis. For the sham surgery group, the articular capsule was excised to observe the medial meniscus inside the organ and closed without surgical removal.\nWeight change and knee joint thickness change were monitored and measured once a week for 84 days from administration, and on the final day, the maximum stretching angle of the knee joint and the knee joint thickness after exposing the capsule were measured under Safranin O dye, respectively. The Makin scores of the femur and tibia and the cartilage thickness were then histomorphometrically measured, and the articular cartilages of the femur and tibia were each evaluated for BrdU immunoreactivity."}, "[3]": {"settings": "Diclofenac sodium treated group (dose not given)"}, "[4]": {"settings": "Diclofenac sodium treated group (dose not given), average ± SD of 8 animals"}, "[5]": {"settings": "Diclofenac sodium treated group (dose not given), ± SD of 16 joints"}, "[6]": {"settings": "diclofenac sodium group (dose not given)"}, "[7]": {"settings": "diclofenac sodium 2 mg/kg transdermal daily 84 days"}},
  "data": [
    {"smiles": "O=C(O)Cc1ccccc1Nc1c(Cl)cccc1Cl", "note": "[Diclofenac sodium, diclofenac sodium]", "values": [
      {"measurement": "Cortex thickness (thymus)", "setting": "[1]; [3]", "value": "1.333 ± 0.705", "unit": "mm/lobules"},
      {"measurement": "Total thickness (thymus)", "setting": "[1]; [3]", "value": "1.941 ± 0.916", "unit": "mm/lobules"},
      {"measurement": "Entire thickness (spleen)", "setting": "[1]; [4]", "value": "4.464 ± 0.58", "unit": "mm/central part"},
      {"measurement": "Number of white medulla (spleen)", "setting": "[1]; [4]", "value": "10.500 ± 2.121 /1 mm^2"},
      {"measurement": "Thickness of white medulla (spleen)", "setting": "[1]; [4]", "value": "0.986 ± 0.304", "unit": "mm/white medulla"},
      {"measurement": "Erosion level (Max = 3), femur articular cartilage", "setting": "[1]; [5]", "value": "1.000 ± 0.000"},
      {"measurement": "Erosion level (Max = 4), tibia articular cartilage", "setting": "[1]; [5]", "value": "0.500 ± 1.000"},
      {"measurement": "Safranin level (Max = 3), femur articular cartilage", "setting": "[1]; [5]", "value": "0.500 ± 0.577"},
      {"measurement": "Safranin level (Max = 3), tibia articular cartilage", "setting": "[1]; [5]", "value": "1.500 ± 0.577"},
      {"measurement": "Thickness (mm) of tibia articular cartilage", "setting": "[1]; [5]", "value": "0.169 ± 0.024", "unit": "mm"},
      {"measurement": "Thickness of the femur articular cartilage", "setting": "[1]; [5]", "value": "0.470 ± 0.674", "unit": "mm"},
      {"measurement": "collagen-induced RA opinion (proteoglycan loss, erosion, cartilage thickness of knee joint)", "setting": "[1]; all Polycan groups except 21.25 mg/kg in the tibia, diclofenac sodium group", "value": "remarkably suppressed"},
      {"measurement": "Safranin O score of femur articular cartilage, change compared to the RA control group", "setting": "[1]; [6]", "value": "−63.64", "unit": "%"},
      {"measurement": "Safranin O score of the tibia articular cartilage, change compared to the RA control group", "setting": "[1]; [6]", "value": "−29.41", "unit": "%"},
      {"measurement": "diameter of the spleen white medulla, change compared to the RA control group", "setting": "[1]; [6]", "value": "−8.14", "unit": "%"},
      {"measurement": "entire spleen thickness, change compared to the RA control group", "setting": "[1]; [6]", "value": 17.49, "unit": "%"},
      {"measurement": "entire thymus thickness, change compared to the RA control group", "setting": "[1]; [6]", "value": "−2.80", "unit": "%"},
      {"measurement": "erosion score of the femur articular cartilage, change compared to the RA control group", "setting": "[1]; [6]", "value": "−36.00", "unit": "%"},
      {"measurement": "erosion score of the tibia articular cartilage, change compared to the RA control group", "setting": "[1]; [6]", "value": "−75.00", "unit": "%"},
      {"measurement": "number of spleen white medulla, change compared to the RA control group", "setting": "[1]; [6]", "value": 5.00, "unit": "%"},
      {"measurement": "thickness of the femur joint cartilage, change compared to the RA control group", "setting": "[1]; [6]", "value": 333.70, "unit": "%"},
      {"measurement": "thickness of the thymus cortex, change compared to the RA control group", "setting": "[1]; [6]", "value": 18.83, "unit": "%"},
      {"measurement": "thickness of the tibia articular cartilage, change compared to the RA control group", "setting": "[1]; [6]", "value": 38.75, "unit": "%"},
      {"measurement": "BrdU immunoreactive cell number in the femur articular cartilage, change compared to the OA control group", "setting": "[2]; [7]", "value": 9.52, "unit": "%"},
      {"measurement": "BrdU immunoreactive cell number in the tibia articular cartilage, change compared to the OA control group", "setting": "[2]; [7]", "value": 1.56, "unit": "%"},
      {"measurement": "Mankin score of the femur, change compared to the OA control group", "setting": "[2]; [7]", "value": "−27.85", "unit": "%"},
      {"measurement": "Mankin score of the tibia, change compared to the OA control group", "setting": "[2]; [7]", "value": "−20.59", "unit": "%"},
      {"measurement": "maximum stretching angle of knee joint, change compared to the OA control group", "setting": "[2]; [7]", "value": "−18.18", "unit": "%"},
      {"measurement": "thickness of the knee joint after exposing the joint capsule, change compared to the OA control group", "setting": "[2]; [7]", "value": "−0.99", "unit": "%"},
      {"measurement": "thickness of the knee joint in the final autopsy, change compared to the OA control group", "setting": "[2]; [7]", "value": "−5.79", "unit": "%"},
      {"measurement": "articular cartilage thickness of the femur, change compared to the OA control group", "setting": "[2]; diclofenac sodium 2 mg/kg transdermal daily 84 days, b105", "value": 35.11, "unit": "%"},
      {"measurement": "thickness of the knee joint compared to osteoarthritis-caused control group over time", "setting": "[2]; each of the three-dose Polycan and diclofenac sodium groups, from 21 days after administration, p<0.01 or p<0.05", "value": "significantly decreased"}
    ]}
  ]
}
